For series [1], the system named is H. felis strain (ATCC 49179). Briefly: H. felis mouse model (clearance / eradication, urease test). The format is in vivo, mice. The following applies: for Clearance %: 3-day treatment of infected mice, 2 × 10 mg/kg, 6 animals per group; for Eradication of H. felis in the mouse model: animal model (H. felis, mouse), monotherapeutic treatment. As for the experimental part: The bacteria were administered as a suspension (0.1 ml with 10^8-10^9 bacteria) 4 times within 7 days using a pharyngeal tube. Alternatively, stomach homogenates of mice which had been infected earlier were also used for infection.
In some cases, pathogen eradication 24 weeks after the end of the treatment was also determined. In accordance with the “CLO” test used in clinical diagnostics, a microtitre-based urease test was used. Defined stomach biopsy specimens were tested for change of colour within a period of 24 hours.

Series [2] concerns H. pylori clinic isolate 008. Briefly: MIC, agar dilution test, H. pylori clinic isolate 008. The series is classed as cell-based. To be noted: lowest concentration with no visible growth; for MIC: Helicobacter pylori. As for the experimental part: (§1) For inoculation, fresh Helicobacter cultures from liquid culture or suspension of the pathogens from agar plates were used. The inoculated agar plates were incubated at 37° C. in an atmosphere containing 5-10% of CO2 for 48-72 hours.
For orientation: In agar dilution, organisms are placed on agar that contains the substance at set levels.

In series [3] the test system is H. pylori NCTC 11637. Put plainly: MIC, agar dilution test, H. pylori NCTC 11637. The series is classed as cell-based. To be noted: for MIC: Helicobacter pylori, NCTC11637, lowest concentration with no visible growth. As to the method: as §1
The test system of series [4] is H. pylori. To be noted: cited from earlier work.

Usually melting point stands for the temperature, or range, at which the solid turns liquid. By MIC is commonly meant the lowest concentration that inhibits growth of the organism.

SMILES strings stand for the structures. In brackets after ≈: the same amount, converted by molar mass. Structures can show the parent of a compound that is named as a salt.

In turn, `COC(=O)c1cn(C2CC2)c2c(F)c(N3CC4CCOC4(CN)C3)c(F)cc2c1=O.Cl` (stereo not drawn) yielded a melting point of 109 to 111 °C. Same read-out and setting: the value for `C=CCOC(=O)c1cn(C2CC2)c2c(F)c(N3CC4CCOC4(CN)C3)c(F)cc2c1=O.O=C(O)C(F)(F)F` (stereo not drawn) was 118 to 119 °C (dec.). As for `NCC12CN(c3c(F)cc4c(=O)c(C(=O)OCc5ccccc5)cn(C5CC5)c4c3F)CC1CCO2.O=C(O)C(F)(F)F` (stereo not drawn), the melting point was 119 to 120 °C (dec.).

With `CC(C)(CF)n1cc(C(=O)O)c(=O)c2cc(F)c(N3CC4CCOC4(CN)C3)cc21.O=C(O)C(F)(F)F` (stereo not drawn), the melting point was 197 to 198 °C (dec.). Turning to `Cl.NCC12CN(c3cc4c(c(O)c3F)c(=O)c(C(=O)O)cn4C3CC3)CC1CCO2` (stereo not drawn), the melting point was 225 °C (dec.). Still for that read-out and setting: the value for `Cl.NCC12CN(c3nc4c(cc3F)c(=O)c(C(=O)O)cn4-c3cnsn3)CC1CCO2` (stereo not drawn) was 207 °C (dec.). Same read-out and setting: in the case of `NCC12CN(c3cc4c(cc3F)c(=O)c3c(=O)[nH]sc3n4C3CC3)CC1CCO2.O=C(O)C(F)(F)F` (stereo not drawn) it was 215 °C (dec.); in that of `CN1COc2c(N3CC4CCOC4(CN)C3)c(F)cc3c(=O)c(C(=O)O)cn1c23.Cl` (stereo not drawn), 233 °C; in that of `COc1c(N2CC3CCOC3(CN)C2)c(F)c(N)c2c(=O)c(C(=O)O)cn(C3CC3)c12.Cl` (stereo not drawn), 242 to 244 °C (dec.).

With `C[C@H]1COc2c(N3CC4CCOC4(CN)C3)c(F)cc3c(=O)c(C(=O)O)cn1c23.Cl` (stereo partly drawn), the melting point was 191 to 193 °C (dec.). As for `Cc1c(F)c(N2CC3CCOC3(CN)C2)cc2c1c(=O)c(C(=O)O)cn2C1CC1.Cl` (stereo not drawn), the melting point is 251 to 253 °C (dec.). Consider `CNn1cc(C(=O)O)c(=O)c2cc(F)c(N3CC4CCOC4(CN)C3)c(F)c21.Cl` (stereo not drawn), for which the melting point was 177 to 179 °C (dec.). Take `COc1c(N2CC3CCOC3(CN)C2)c(F)cc2c(=O)c(C(=O)O)cn(C3CC3)c12.O=C(O)C(F)(F)F` (stereo not drawn): the melting point was 215 to 216 °C (dec.).

Turning to `Cc1nc(N2CC3CCOC3(CN)C2)c(Cl)c2c1c(=O)c(C(=O)O)cn2C1CC1.O=C(O)C(F)(F)F` (stereo not drawn), the melting point is 125 to 128 °C (dec.). As for `CCOC(=O)c1cn(C2CC2)c2c(F)c(N3CC4CCOC4(CN)C3)ncc2c1=O.O=C(O)C(F)(F)F` (stereo not drawn), the melting point is 199 to 200 °C (dec.). For `CCOC(=O)c1cn(C2CC2)c2c(F)c(N3CC4CCOC4(CN)C3)c(F)cc2c1=O.O=C(O)C(F)(F)F` (stereo not drawn), the melting point lay in the range of 139 to 141 °C. With `NCC12CN(c3ncc4c(=O)c(C(=O)O)cn(C5CC5)c4c3F)CC1CCO2` (stereo not drawn) (as salt: hydrochloride), the melting point is 301 to 304 °C (dec.). Regarding `Cl.NCC12CN(c3c(F)cc4c(=O)c(C(=O)O)cn(C5CC5)c4c3F)CC1CCO2` (racemic) [Substance A, rac. 7-(1-aminomethyl-2-oxa-7-aza-bicyclo[3.3.0]oct-7-yl)-1-cyclopropyl-6,8-difluoro-1,4-dihydro-4-oxo-3-quinolinecarboxylic acid hydrochloride], in series [1], the Clearance % was 67%. The “Eradication of the pathogen” value in series [1] (14-day treatment of the mice with 3×10 mg/kg) is on record as “total eradication”.

The compound `Cl.N#Cc1c(N2CC3CCOC3(CN)C2)c(F)cc2c(=O)c(C(=O)O)cn(C3CC3)c12` (single isomer, unassigned; (+)) [Example 5 C, (+)-7-(1-aminomethyl-2-oxa-7-aza-bicyclo[3.3.0]oct-7-yl)-8-cyano-1-cyclopropyl-6-fluoro-1,4-dihydro-4-oxo-3-quinolinecarboxylic acid hydrochloride] had a Clearance % in series [1] of 100%. For the compound `O=C(O)c1cn(C2CC2)c2c(Cl)c(N3C[C@@H]4CCCN[C@@H]4C3)c(F)cc2c1=O` [BAY Y 3118, 8-chloro-1-cyclopropyl-7-([S,S]-2,8-diazabicyclo[4.3.0]non-8-yl)-6-fluoro-1,4-dihydro-4-oxo-3-quinolinecarboxylic acid, reference compound], the “Eradication of H. felis in the mouse model” value in series [1] is given as “not possible to achieve eradication”. With `COc1c(N2CC3CCOC3(CN)C2)c(F)c(N)c2c(=O)c(C(=O)O)cn(C3CC3)c12` (stereo not drawn) [Example 2 C, 5-amino-7-(1-aminomethyl-2-oxa-7-aza-bicyclo[3.3.0]oct-7-yl)-1-cyclopropyl-6-fluoro-1,4-dihydro-8-methoxy-4-oxo-3-quinolinecarboxylic acid], the melting point was 209 to 211 °C (dec.). On to `CCCCOC(=O)c1cn(C2CC2)c2c(F)c(N3CC4CCOC4(CN)C3)c(F)cc2c1=O` (stereo not drawn) [Example 11 B, 1-Butyl 7-(1-aminomethyl-2-oxa-7-aza-bicyclo[3.3.0]oct-7-yl)-1-cyclopropyl-6,8-difluoro-1,4-dihydro-4-oxo-3-quinolinecarboxylate], for which the melting point is 117 to 119 °C (dec.). In the case of `C=CCOC(=O)c1cn(C2CC2)c2c(F)c(N3CC4CCOC4(CN)C3)c(F)cc2c1=O` (stereo not drawn) [Example 12 B, Allyl 7-(1-aminomethyl-2-oxa-7-aza-bicyclo[3.3.0]oct-7-yl)-1-cyclopropyl-6,8-difluoro-1,4-dihydro-4-oxo-3-quinolinecarboxylate], the melting point is 133 to 135 °C (dec.). `C#CCOC(=O)c1cn(C2CC2)c2c(F)c(N3CC4CCOC4(CN)C3)c(F)cc2c1=O` (stereo not drawn) [Example 13 B, Propargyl 7-(1-aminomethyl-2-oxa-7-aza-bicyclo[3.3.0]oct-7-yl)-1-cyclopropyl-6,8-difluoro-1,4-dihydro-4-oxo-3-quinolinecarboxylate]: the melting point was 127 to 129 °C (dec.). Still for that read-out and setting: in the case of `NCC12CN(c3c(F)cc4c(=O)c(C(=O)OCc5ccccc5)cn(C5CC5)c4c3F)CC1CCO2` (stereo not drawn) [Example 14 B, Benzyl 7-(1-aminomethyl-2-oxa-7-aza-bicyclo[3.3.0]oct-7-yl)-1-cyclopropyl-6,8-difluoro-1,4-dihydro-4-oxo-3-quinolinecarboxylate] it was 118 to 119 °C (dec.); in that of `CCOC(=O)COC(=O)c1cn(C2CC2)c2c(F)c(N3CC4CCOC4(CN)C3)c(F)cc2c1=O` (stereo not drawn) [Example 15 B, Ethoxycarbonylmethyl 7-(1-aminomethyl-2-oxa-7-aza-bicyclo[3.3.0]oct-7-yl)-1-cyclopropyl-6,8-difluoro-1,4-dihydro-4-oxo-3-quinolinecarboxylate], 144 to 146 °C (dec.); in that of `CC(C)(C)n1cc(C(=O)O)c(=O)c2cc(F)c(N3CC4CCOC4(CN)C3)cc21` (stereo not drawn) [Example 17 B, 7-(1-aminomethyl-2-oxa-7-aza-bicyclo[3.3.0]oct-7-yl)-1-tert-butyl-6-fluoro-1,4-dihydro-4-oxo-3-quinolinecarboxylic acid], 217 to 218 °C (dec.). For the compound `NC(=O)NCC12CN(c3c(F)cc4c(=O)c(C(=O)O)cn(C5CC5)c4c3F)CC1CCO2` (stereo not drawn) [Example 27, 1-cyclopropyl-6,8-difluoro-1,4-dihydro-4-oxo-7-(1-ureidomethyl-2-oxa-7-aza-bicyclo[3.3.0]oct-7-yl)-3-quinolinecarboxylic acid], the melting point was 185 to 187 °C (dec.). The MIC in series [2] is at most 0.015 µg/mL. In series [3], this compound returned an MIC of 0.5 µg/mL (≈ 1.12 µM). As to `NC(=O)NCC12CN(c3c(F)cc4c(=O)c(C(=O)O)cn(C5CC5)c4c3OC(F)F)CC1CCO2` (stereo not drawn) [Example 29, 1-cyclopropyl-8-difluoromethoxy-6-fluoro-1,4-dihydro-4-oxo-7-(1-ureidomethyl-2-oxa-7-aza-bicyclo[3.3.0]oct-7-yl)-3-quinolinecarboxylic acid], the MIC in series [2] and in series [3] was 8 µg/mL (≈ 16.1 µM) in each case. For `NC(=O)NCC12CN(c3c(F)cc4c(=O)c(C(=O)O)cn([C@@H]5C[C@@H]5F)c4c3Cl)CC1CCO2` (stereo partly drawn) [Example 30, 8-chloro-6-fluoro-1-[(1R,2S)-2-fluoro-cyclopropyl]-1,4-dihydro-4-oxo-7-(1-ureidomethyl-2-oxa-7-aza-bicyclo[3.3.0]oct-7-yl)-3-quinolinecarboxylic acid], the MIC in series [2] is 0.25 µg/mL (≈ 0.518 µM); in series [3] it was 0.125 µg/mL (≈ 0.259 µM). With `O=CNCC12CN(c3c(F)cc4c(=O)c(C(=O)O)cn(C5CC5)c4c3F)CC1CCO2` (stereo not drawn) [Example 31, 1-cyclopropyl-6,8-difluoro-7-(1-formylaminomethyl-2-oxa-7-aza-bicyclo[3.3.0]oct-7-yl)-1,4-dihydro-4-oxo-3-quinolinecarboxylic acid], the melting point is 208 to 209 °C (dec.). The compound also gave an MIC in series [2] below 0.5 µg/mL. In series [3], this compound gave an MIC of 0.5 µg/mL (≈ 1.15 µM).

In the case of `C=Cc1c(F)c(N2CC3CCOC3(CN)C2)c(F)c2c1c(=O)c(C(=O)O)cn2C1CC1.Cl` (stereo not drawn) [Ref.*^), 7-(1-aminomethyl-2-oxa-7-aza-bicyclo[3.3.0]oct-7-yl)-1-cyclopropyl-6,8-difluror-1,4-dihydro-4-oxo-5-vinyl-3-quinolinecarboxylic acid hydrochloride], in series [4], the “Activity against H. pylori” value is reported as “relatively low”. For `C=Cc1c(F)c(N2CC3CCOC3(CN)C2)c(F)c2c1c(=O)c(C(=O)O)cn2C1CC1.Cl` (stereo not drawn) [Ref.*^)], in series [2], the “MIC H. pylori 008” value stood at 0.25 µg/mL. Besides, the “MIC H. pylori 11637” value in series [3] (lowest concentration with no visible growth) was 0.25 µg/mL. Regarding `CCn1cc(C(=O)O)c(=O)c2cc(F)c(N3CCNC(C)C3)c(F)c21` (stereo not drawn) [lomefloxacin, reference compound], the “Eradication of H. felis in the mouse model” value in series [1] is “not capable of eradicating the germ”.

Values taken from patent US20010036941A1, “Use of 7-(1-aminomethyl-2-oxa-7-aza-bicyclo[3.3.0]oct-7-yl)-quinolonecarboxylic acid and -naphthyridonecarboxylic acid derivatives for the therapy of Helicobacter pylori infections and associated gastroduodenal disorders” (priority 1996, published 2001).
